Test results as given in paper PMC4750701, “Role of Mitochondrial RNA Polymerase in the Toxicity of Nucleotide Inhibitors of Hepatitis C Virus” (Antimicrobial Agents and Chemotherapy, 2016).
Where two headings read alike, the source gives them in different places.

Experiments:
[1] = biological target: T1, Human DNA polymerase alpha (Homo sapiens, UniProt P09884); assay: Inhibition of human DNA polymerase alpha; assay type: biochemical; details: triphosphate form of the compound tested; read-out: Mean IC50 ± SD for DNA Pol α
T1 construct: isolated from HeLa cell extracts; purchased CHIMERx (Madison, WI); host or cells: HeLa cell extracts (endogenous enzyme)
T1 sequence (P09884 whole entry): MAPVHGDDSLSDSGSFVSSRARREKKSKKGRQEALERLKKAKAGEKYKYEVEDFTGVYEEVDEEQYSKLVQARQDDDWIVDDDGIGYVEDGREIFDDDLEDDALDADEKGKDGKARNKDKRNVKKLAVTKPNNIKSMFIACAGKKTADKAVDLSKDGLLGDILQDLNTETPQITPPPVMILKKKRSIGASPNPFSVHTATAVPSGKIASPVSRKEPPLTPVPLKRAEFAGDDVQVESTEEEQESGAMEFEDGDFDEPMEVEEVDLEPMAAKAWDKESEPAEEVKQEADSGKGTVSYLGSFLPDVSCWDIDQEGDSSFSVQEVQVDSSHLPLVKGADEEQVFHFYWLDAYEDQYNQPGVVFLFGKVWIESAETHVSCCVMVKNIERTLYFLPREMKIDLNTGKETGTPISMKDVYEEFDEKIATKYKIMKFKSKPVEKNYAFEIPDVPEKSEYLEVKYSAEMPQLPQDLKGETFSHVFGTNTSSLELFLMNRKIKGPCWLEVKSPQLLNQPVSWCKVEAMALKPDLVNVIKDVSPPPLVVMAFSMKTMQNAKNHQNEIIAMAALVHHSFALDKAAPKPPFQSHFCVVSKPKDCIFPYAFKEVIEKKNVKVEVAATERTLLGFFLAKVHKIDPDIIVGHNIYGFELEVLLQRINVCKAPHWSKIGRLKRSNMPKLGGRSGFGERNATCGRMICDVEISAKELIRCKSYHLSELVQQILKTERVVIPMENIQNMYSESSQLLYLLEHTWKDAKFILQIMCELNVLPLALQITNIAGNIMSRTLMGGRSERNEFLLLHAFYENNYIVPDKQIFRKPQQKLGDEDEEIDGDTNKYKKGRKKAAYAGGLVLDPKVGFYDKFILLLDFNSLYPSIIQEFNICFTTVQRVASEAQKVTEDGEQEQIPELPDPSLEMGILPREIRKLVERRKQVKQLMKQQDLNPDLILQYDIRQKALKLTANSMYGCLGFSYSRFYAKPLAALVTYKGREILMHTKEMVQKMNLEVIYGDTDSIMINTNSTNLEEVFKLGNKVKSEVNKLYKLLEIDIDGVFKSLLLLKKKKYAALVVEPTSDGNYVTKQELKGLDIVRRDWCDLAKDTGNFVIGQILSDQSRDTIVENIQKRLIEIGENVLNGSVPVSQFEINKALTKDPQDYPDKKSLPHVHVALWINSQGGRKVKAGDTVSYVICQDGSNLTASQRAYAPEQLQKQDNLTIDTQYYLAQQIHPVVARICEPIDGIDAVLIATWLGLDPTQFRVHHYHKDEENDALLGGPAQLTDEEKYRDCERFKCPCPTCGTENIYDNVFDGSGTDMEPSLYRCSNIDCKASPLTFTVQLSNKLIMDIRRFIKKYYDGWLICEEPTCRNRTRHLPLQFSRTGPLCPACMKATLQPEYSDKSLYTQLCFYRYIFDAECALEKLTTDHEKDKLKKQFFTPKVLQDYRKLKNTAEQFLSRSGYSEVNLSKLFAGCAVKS
T1 sequence (Q14181 whole entry partner): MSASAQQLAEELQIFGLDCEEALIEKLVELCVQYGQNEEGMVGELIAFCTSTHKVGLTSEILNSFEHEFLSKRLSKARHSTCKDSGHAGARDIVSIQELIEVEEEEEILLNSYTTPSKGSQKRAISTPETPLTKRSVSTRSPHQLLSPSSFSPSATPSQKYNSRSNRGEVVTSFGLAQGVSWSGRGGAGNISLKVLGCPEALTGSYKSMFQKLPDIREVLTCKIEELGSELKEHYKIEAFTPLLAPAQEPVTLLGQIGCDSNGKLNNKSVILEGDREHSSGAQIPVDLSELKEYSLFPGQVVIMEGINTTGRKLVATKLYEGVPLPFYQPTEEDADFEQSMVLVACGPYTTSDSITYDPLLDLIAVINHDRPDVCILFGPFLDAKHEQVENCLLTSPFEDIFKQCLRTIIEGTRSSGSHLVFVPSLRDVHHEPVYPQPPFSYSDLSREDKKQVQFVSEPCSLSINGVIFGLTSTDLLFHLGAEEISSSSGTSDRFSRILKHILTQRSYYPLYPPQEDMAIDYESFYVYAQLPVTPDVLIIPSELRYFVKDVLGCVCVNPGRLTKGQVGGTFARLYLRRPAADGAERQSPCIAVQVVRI
T1 sequence (P49642 whole entry partner): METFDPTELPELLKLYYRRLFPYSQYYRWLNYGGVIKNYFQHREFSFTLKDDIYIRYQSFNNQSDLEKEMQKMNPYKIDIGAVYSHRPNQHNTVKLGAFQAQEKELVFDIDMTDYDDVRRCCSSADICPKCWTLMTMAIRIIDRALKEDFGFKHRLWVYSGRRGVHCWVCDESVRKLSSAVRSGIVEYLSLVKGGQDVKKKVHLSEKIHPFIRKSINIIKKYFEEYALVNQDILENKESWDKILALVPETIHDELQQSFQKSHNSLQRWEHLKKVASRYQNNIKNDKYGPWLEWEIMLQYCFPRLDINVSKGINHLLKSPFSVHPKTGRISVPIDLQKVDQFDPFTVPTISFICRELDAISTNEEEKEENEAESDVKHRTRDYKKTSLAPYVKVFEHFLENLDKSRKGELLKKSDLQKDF
T1 sequence (P49643 whole entry partner): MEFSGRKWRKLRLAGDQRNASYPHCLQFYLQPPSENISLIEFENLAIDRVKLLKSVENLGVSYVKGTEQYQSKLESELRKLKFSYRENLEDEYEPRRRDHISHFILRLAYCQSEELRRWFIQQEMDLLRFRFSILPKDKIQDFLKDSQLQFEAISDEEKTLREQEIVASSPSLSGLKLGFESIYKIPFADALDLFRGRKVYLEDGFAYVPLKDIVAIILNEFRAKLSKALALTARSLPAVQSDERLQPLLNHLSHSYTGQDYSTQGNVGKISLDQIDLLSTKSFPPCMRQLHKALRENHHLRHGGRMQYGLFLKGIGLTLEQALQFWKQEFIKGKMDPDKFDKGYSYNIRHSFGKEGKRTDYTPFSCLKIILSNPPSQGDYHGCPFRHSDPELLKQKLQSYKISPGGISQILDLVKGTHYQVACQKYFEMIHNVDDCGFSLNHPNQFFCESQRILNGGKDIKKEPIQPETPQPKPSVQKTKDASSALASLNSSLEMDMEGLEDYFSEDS
From the text: (§1) Activated fish sperm DNA was purchased from USB/Affymetrix (Santa Clara, CA) and used as a template for the DNA polymerases alpha, beta, and gamma. […] The RNA and DNA oligonucleotides used in the mitochondrial RNA polymerase assay (see Table S1 in the supplemental material) were synthesized and PAGE purified by Thermo Scientific/Dharmacon (Lafayette, CO). RNA primer R12 was 5′-^32P-phosphorylated with [γ-^32P]ATP (3,000 Ci/mmol) and T4 kinase (New England BioLabs, Ipswich, MA).
(§2) Human DNA polymerase alpha, isolated from HeLa cell extracts, was from CHIMERx (Madison, WI). Recombinant human DNA polymerase beta, expressed in E. coli, was a gift from Zucai Suo at The Ohio State University. Recombinant human DNA polymerase gamma (including both the large subunit and the small subunit) was cloned, expressed, and purified from insect cells by Gilead Sciences (Foster City, CA) ([13]). RNA PolII was purchased as part of the HeLaScribe nuclear extract in vitro transcription system kit from Promega (Madison, WI). The recombinant human PolRMT and the transcription factors mitochondrial transcription factor A (mtTFA) and B2 (mtTFB2) were purchased from Enzymax (Lexington, KY). FLAG epitope-tagged RNA PolI and PolIII complexes were isolated from rat NSN1 cells and HeLa cells, respectively ([17], [18]). The inhibition of DNA polymerases alpha, beta, and gamma, PolRMT, and PolII and the rate of single-nucleotide incorporation by PolRMT have been described previously in detail ([12], [13], [19]). Inhibition of RNA PolI and PolIII was studied using published methods ([20], [21]). All concentrations were final unless noted otherwise. […] After incubation at 30°C for 20 min to 1 h, the reactions were terminated by pipetting the mixtures onto DEAE-cellulose discs (DE81; Whatman), and the products analyzed as described previously ([20], [21]).

[2] = biological target: T2, Recombinant human DNA polymerase beta (Homo sapiens, UniProt P06746); assay: Inhibition of human DNA polymerase beta; assay type: biochemical; details: triphosphate form of the compound tested; read-out: Mean IC50 ± SD for DNA Pol β
T2 construct: host or cells: E. coli
From the text: (§3) Activated fish sperm DNA was purchased from USB/Affymetrix (Santa Clara, CA) and used as a template for the DNA polymerases alpha, beta, and gamma. The DNA template used in the RNA Pol II assay was a 1,188-bp restriction fragment containing the cytomegalovirus (CMV) immediate early promoter (Promega, Madison, WI). The RNA and DNA oligonucleotides used in the mitochondrial RNA polymerase assay (see Table S1 in the supplemental material) were synthesized and PAGE purified by Thermo Scientific/Dharmacon (Lafayette, CO). RNA primer R12 was 5′-^32P-phosphorylated with [γ-^32P]ATP (3,000 Ci/mmol) and T4 kinase (New England BioLabs, Ipswich, MA).
as §2, with “otherwise. For the RNA PolI inhibition assay, a reaction mixture containing 50 mM HEPES (pH 7.9), 20% glycerol, 100 mM KCl, 1 mM dithiothreitol (DTT), 50 μg/ml calf thymus DNA, 4 mM MgCl2, 5 or 80 μM UTP (0.25 μl of [5,6-^3H]UTP, >25 Ci/mmol; PerkinElmer), 1 mM noncompeting NTP, competing NTP (5 μM for GTP, CTP, and UTP and 25 μM for ATP), and various concentrations (0 to 500 μM) of NTP analogs was preincubated at 30°C for 5 min.” for “otherwise.”

[3] = biological target: T3, RNA PolII (Homo sapiens, UniProt P24928+P30876); assay: Inhibition of RNA PolII (HeLaScribe nuclear extract transcription); assay type: biochemical; details: read-out: Mean IC50 ± SD for RNA PolII
T3 construct: purchased as part of the HeLaScribe nuclear extract in vitro transcription system kit; purchased Promega (Madison, WI); host or cells: HeLa nuclear extract (endogenous enzyme)
From the text: as §3
as §2, with “otherwise. For the RNA PolI inhibition assay, a reaction mixture containing 50 mM HEPES (pH 7.9), 20% glycerol, 100 mM KCl, 1 mM dithiothreitol (DTT), 50 μg/ml calf thymus DNA, 4 mM MgCl2, 5 or 80 μM UTP (0.25 μl of [5,6-^3H]UTP, >25 Ci/mmol; PerkinElmer), 1 mM noncompeting NTP, competing NTP (5 μM for GTP, CTP, and UTP and 25 μM for ATP), and various concentrations (0 to 500 μM) of NTP analogs was preincubated at 30°C for 5 min.” for “otherwise.”

[4] = biological target: T4, recombinant human PolRMT (Homo sapiens, UniProt O00411); assay: Inhibition of PolRMT-catalyzed RNA synthesis; assay type: biochemical; details: triphosphate form of the compound tested (Table 4); read-out: Mean IC50 ± SD for PolRMT
T4 construct: purchased Enzymax (Lexington, KY)
T4 sequence (O00411 42-1230): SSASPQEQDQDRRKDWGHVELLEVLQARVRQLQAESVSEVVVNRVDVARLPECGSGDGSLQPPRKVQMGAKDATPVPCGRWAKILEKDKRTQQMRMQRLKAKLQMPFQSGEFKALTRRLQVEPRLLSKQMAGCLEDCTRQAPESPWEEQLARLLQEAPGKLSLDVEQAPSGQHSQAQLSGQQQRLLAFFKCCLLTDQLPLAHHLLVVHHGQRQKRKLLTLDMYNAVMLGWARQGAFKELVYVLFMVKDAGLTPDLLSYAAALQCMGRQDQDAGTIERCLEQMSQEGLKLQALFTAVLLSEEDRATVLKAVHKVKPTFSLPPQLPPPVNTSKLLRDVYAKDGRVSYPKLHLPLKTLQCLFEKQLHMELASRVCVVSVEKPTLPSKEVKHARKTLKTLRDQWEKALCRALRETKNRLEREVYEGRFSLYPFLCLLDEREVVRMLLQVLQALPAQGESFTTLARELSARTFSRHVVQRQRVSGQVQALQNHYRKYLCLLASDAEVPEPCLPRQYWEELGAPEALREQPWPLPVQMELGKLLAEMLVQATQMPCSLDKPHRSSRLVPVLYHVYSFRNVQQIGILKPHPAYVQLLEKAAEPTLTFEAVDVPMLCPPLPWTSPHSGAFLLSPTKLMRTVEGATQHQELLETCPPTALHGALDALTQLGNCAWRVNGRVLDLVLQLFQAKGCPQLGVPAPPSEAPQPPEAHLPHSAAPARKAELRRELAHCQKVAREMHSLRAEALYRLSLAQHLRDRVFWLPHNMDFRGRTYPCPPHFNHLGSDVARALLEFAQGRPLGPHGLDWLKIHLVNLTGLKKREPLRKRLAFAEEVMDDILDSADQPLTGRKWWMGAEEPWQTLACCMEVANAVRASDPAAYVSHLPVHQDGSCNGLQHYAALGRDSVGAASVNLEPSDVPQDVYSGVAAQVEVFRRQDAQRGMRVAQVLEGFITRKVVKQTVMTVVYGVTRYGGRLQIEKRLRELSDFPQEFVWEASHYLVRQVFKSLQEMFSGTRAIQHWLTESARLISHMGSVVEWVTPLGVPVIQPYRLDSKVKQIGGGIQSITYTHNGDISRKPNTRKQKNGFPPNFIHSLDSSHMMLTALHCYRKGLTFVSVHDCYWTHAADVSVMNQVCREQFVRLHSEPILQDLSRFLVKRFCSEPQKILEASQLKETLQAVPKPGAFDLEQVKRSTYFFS
From the text: as §1, §2

[5] = tested on: mitochondrial DNA-encoded cytochrome c oxidase (COX-1; complex IV) protein level; assay: Mitochondrial protein synthesis assay (COX-1, MitoBiogenesis in-cell ELISA) in PC-3 cells; assay type: cell-based, human; details: human; PC-3 cells, COX-1, 5 days; read-out: Mean CC50 ± SD causing Mitochondrial toxicity: Protein synthesis
Procedure, shortened: (§4)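 PC-3 cells were exposed to compound for 5 days. Protein levels of nuclear-encoded SDH-A and mitochondrial-encoded COX-1 were then quantified by in-cell ELISA (quantitative immunocytochemistry).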

[6] = tested on: nuclear DNA-encoded succinate dehydrogenase (SDH-A; complex II) protein level; assay: Nuclear protein synthesis (SDH-A, MitoBiogenesis in-cell ELISA) in PC-3 cells; assay type: cell-based, human; details: human, read-out: Mean CC50 ± SD causing General cellular toxicity: Protein synthesis
Procedure, shortened: as §4

[7] = triphosphate form of the compound tested (Table 4)

IC50 [1] | IC50 [2] | IC50 [3, 7] | IC50 [4] | IC50 ([3]; nucleotide analogs (Table 6)) | Structure (SMILES) | CC50 at 5 days [5] | CC50 at 5 days [6] | CC50 [5]
> 200 µM | > 200 µM | > 200 µM | > 500 µM | – | CCOc1nc(N)nc2c1ncn2[C@@H]1O[C@@H]2COP(=O)(OC(C)C)O[C@H]2[C@@]1(C)F (stereo partly shown) [PSI-938] | > 100 µM | > 100 µM | –
> 200 µM | > 200 µM | > 200 µM | 230 ± 90 µM | – | C[C@@]1(O)[C@H](O)[C@@H](CO)O[C@H]1n1ccc(N)nc1=O [2′CMeC, 2′-C-methyl (2′CMe) cytidine] | 50 ± 25 µM | 68 ± 26 µM | –
> 200 µM | > 200 µM | > 200 µM | > 500 µM | – | C[C@@]1(F)[C@H](O)[C@@H](CO)O[C@H]1n1ccc(N)nc1=O [PSI-6130] | 70 ± 14 µM | > 100 µM | –
> 200 µM | > 200 µM | > 200 µM | 3.8 ± 2 µM | – | [N-]=[N+]=N[C@]1(CO)O[C@@H](n2ccc(N)nc2=O)[C@H](O)[C@@H]1O [4′-AzidoC, 4′-azido cytidine] | 11 ± 3 µM | > 50 µM | –
> 200 µM | > 200 µM | > 200 µM | – | > 500 µM | C[C@@]1(O)[C@H](O)[C@@H](COP(=O)(O)OP(=O)(O)OP(=O)(O)O)O[C@H]1n1cnc2c(=O)[nH]c(N)nc21 [2′CMeGTP] | – | – | –

Structure (SMILES) | IC50 [1] | IC50 [2] | IC50 [3, 7] | IC50 [4] | IC50 ([3]; nucleotide analogs (Table 6)) | CC50 at 5 days [5] | CC50 at 5 days [6] | CC50 [5]
CC(C)OC(=O)[C@H](C)N[P@](=O)(OC[C@H]1O[C@@H](n2ccc(=O)[nH]c2=O)[C@](C)(F)[C@@H]1O)Oc1ccccc1 [Sofosbuvir] | > 200 µM | > 200 µM | > 200 µM | > 500 µM | – | > 100 µM | > 100 µM | –
COc1nc(N)nc2c1ncn2[C@@H]1O[C@H](COP(=O)(N[C@@H](C)C(=O)OCC(C)(C)C)Oc2cccc3ccccc23)[C@@H](O)[C@@]1(C)O (stereo partly shown) [BMS-986094] | – | – | – | 52 µM | – | – | 0.84 ± 0.26 µM | 0.68 ± 0.1 µM
CC(C)OC(=O)[C@H](C)N[P@](=O)(OC[C@H]1O[C@@](C#N)(c2ccc3c(N)ncnn23)[C@](C)(O)[C@@H]1OC(=O)C(C)C)Oc1ccccc1 [GS-6620] | > 200 µM | > 200 µM | > 200 µM | > 500 µM | – | – | 45 ± 2 µM | 31 ± 5 µM
